Test results from patent publication US20090247646A1, “USE OF RESVERATROL AND DERIVATIVES THEREOF FOR PROMOTING THE WELLNESS STATE IN MAMMALS” (priority 2006, published 2009).

Tested on: gene expression in heart tissue
Experiment: Genome-wide gene expression in heart tissue of old mice fed a resveratrol-supplemented diet (Affymetrix Mouse Genome 430 2.0 array)
Type: in vivo

Measured: Effect of resveratrol on changeing gene expression from old to young profile

Oc1ccc(/C=C/c2cc(O)cc(O)c2)cc1 [resveratrol, 3,4′,5-Trihydroxy-trans-stilbene]
>100%: 1415741_at TPA regulated locus | 1416113_at FK506 binding protein 8 | 1416167_at peroxiredoxin 4 | 1416647_at branched chain ketoacid dehydrogenase E1, alpha polypeptide | 1416648_at dynein, cytoplasmic, heavy chain 1 | 1416698_a_at CDC28 protein kinase 1 | 1416800_at transient receptor potential cation channel, subfamily M, member 7 | 1417149_at procollagen-proline, 2-oxoglutarate 4-dioxygenase (proline 4-hydroxylase), alpha II polypeptide | 1417502_at transmembrane 4 superfamily member 2 | 1417628_at suppressor of Ty 6 homolog (S. cerevisiae) | 1417947_at proliferating cell nuclear antigen | 1417968_a_at methyl-CpG binding domain protein 1 | 1417982_at insulin induced gene 2 | 1418128_at adenylate cyclase 6 | 1418468_at annexin A11 | 1418509_at carbonyl reductase 2 | 1418524_at pericentriolar material 1 | 1418595_at plasma membrane associated protein, S3-12 | 1418648_at EGL nine homolog 3 (C. elegans) | 1418663_at multiple PDZ domain protein | 1418706_at solute carrier family 38, member 3 | 1419034_at casein kinase II, alpha 1 polypeptide | 1419220_at cardiomyopathy associated 1 | 1419665_a_at nuclear protein 1 | 1420620_a_at ring finger protein 13 | 1420727_a_at trimethyllysine hydroxylase, epsilon | 1420834_at vesicle-associated membrane protein 2 | 1420896_at synaptosomal-associated protein 23 | 1420899_at RAB18, member RAS oncogene family | 1420920_a_at ADP-ribosylation factor 1 | 1421468_at potassium inwardly-rectifying channel, subfamily J, member 3 | 1422452_at Bcl2-associated athanogene 3 | 1422799_at HLA-B associated transcript 2 | 1423040_at basic leucine zipper and W2 domains 1 | 1423126_at ATPase, Na+/K+ transporting, beta 3 polypeptide | 1423220_at eukaryotic translation initiation factor 4E | 1423474_at topoisomerase (DNA) I | 1423607_at lumican | 1423845_at expressed sequence AI481750 | 1423898_a_at gene trap locus 6 | 1424164_at mitochondrial ribosomal protein L50 | 1425022_at ubiquitin specific protease 3 | 1425281_a_at delta sleep inducing peptide, immunoreactor | 1425507_at ADP-ribosylation factor related protein 1 | 1425977_a_at serine/threonine kinase 2 | 1426440_at dehydrogenase/reductase (SDR family) member 7 | 1426613_a_at U2 small nuclear ribonucleoprotein B | 1427006_at guanine nucleotide releasing factor 2 | 1427036_a_at eukaryotic translation initiation factor 4, gamma 1 | 1427045_at synaptopodin | 1427245_at ADP-ribosylation factor GTPase activating protein 1 | 1427874_at zinc finger protein 313 | 1429186_a_at cytidine and dCMP deaminase domain containing 1 | 1431054_at LSM6 homolog, U6 small nuclear RNA associated (S. cerevisiae) | 1433558_at disabled homolog 2 (Drosophila) interacting protein | 1433811_at myeloid/lymphoid or mixed lineage-leukemia translocation to 6 homolog (Drosophila) | 1433890_a_at HLA-B-associated transcript 3 | 1433904_at BCL2-antagonist/killer 1 | 1434930_at two pore channel 1 | 1434944_at dystrophia myotonica kinase, B15 | 1435472_at kringle containing transmembrane protein | 1435658_at solute carrier family 27 (fatty acid transporter), member 1 | 1435664_at zinc finger protein 397 | 1436960_at bromodomain containing 3 | 1437892_at Mus musculus transcribed sequences | 1444089_at spectrin beta 2 | 1445186_at stanniocalcin 2 | 1448119_at 2,3-bisphosphoglycerate mutase | 1448185_at homocysteine-inducible, endoplasmic reticulum stress-inducible, ubiquitin-like domain member 1 | 1448277_at polymerase (DNA directed), delta 2, regulatory subunit | 1448307_at Down syndrome critical region homolog 2 (human) | 1448424_at frizzled-related protein | 1448703_at LSM8 homolog, U6 small nuclear RNA associated (S. cerevisiae)
